Assay results: patent US7569208B2, “Diagnostic agents for pancreatic exocrine function” (Tokyo Gas Company Limited, priority 1999, dated 2009)

Columns and labels:
[1] = Solubility / precipitation of phenylalanine in distilled water with or without hydroxypropyl-β-cyclodextrin; assay type: physicochemical; settings: 299 mg of [1-^13C]-phenylalanine in 5 ml distilled water, dissolved at 85° C., cooled to 25° C.
Text: The increase of solubility of phenylalanine in the presence of hydroxypropyl-β-cyclodextrin confirmed the formation of (1-^13C]-phenylalanine/hydroxypropyl-β-cyclodextrin inclusion complex.

[2] = system: pancreatic exocrine function; assay: 13C breath test after oral administration in olive oil to chronic pancreatitis and control rats (GC-MS); assay type: in vivo, rat
Procedure: A ^13C-FDL breath test was carried out wherein ^13C-FDL was orally administered to chronic pancreatitis and control rats and the time course of the ^13C concentration in the exhaled CO2 after the administration was measured.
(§1) According to Mundlos et al. (Mundlos et al., Pancreas, 1:29 (1986)), the chronic pancreatitis rats were prepared by injecting oleic acid into the pancreatic duct of Wistar male rats of 5 weeks old and kept for 3 weeks. Rats in which midline incision was made on the abdomen were used as the control.
The chronic pancreatitis and control rats of 8 weeks old, which fasted overnight, were fixed without anesthesia in a rat holder for a microwave irradiation apparatus. The breath was collected at a rate of about 100 to 300 ml/min using a CO2 meter (CAPSTER-100) to monitor the CO2 concentration. […]
The breath was taken out as a sample immediately before the administration and at every hour for 5 hours after the administration and the ^13C concentration in the exhaled CO2 was analyzed by a gas chromatography-mass spectrometer (GC-MS). The analytic conditions for GC-MS are as follows. The CO2 concentration in the collected breath was held at 3±0.5%. GC-MS conditions:
Assuming that the isotopic abundance of oxygen is the same as that which is naturally occurring, ^13C concentration was calculated from the peak areas of the ions m/z=45 and 46 according to the following equation: […]
Δ^13C (‰) was calculated from the ^13C concentration in the exhaled CO2 at each time point (^13C tmin) and the ^13C concentration in standard CO2 (^13C std) according to the following equation: Δ^13C (‰)=[(^13C tmin−^13C 0 min)/^13C std]×1000 12.2 Results

[3] = at 25° C.; cited from earlier work
[4] = system: pancreatic exocrine function; assay: 13C breath test after oral administration to oleic acid-induced chronic pancreatitis and control rats (13CO2 analyzer); assay type: in vivo, rat; settings: for Δ^13C (‰) value in exhaled CO2: 75 mg/kg oral, at 10 minutes
Procedure: ^13C-labeled cyclodextrin breath test was carried out wherein ^13C-labeled cyclodextrin prepared in Example 1 was orally administered to chronic pancreatitis and control rats and the time course of the ^13C concentration in the exhaled CO2 after the administration was measured.
as §1
The chronic pancreatitis and control rats of 8 weeks old, which fasted overnight, were fixed without anesthesia in a rat holder for a microwave irradiation apparatus. The breath was collected at a rate of about 100 to 300 ml/min using a stroke pump (Variable Stroke Pump VS-500, Shibata Kagaku Kogyo) and introduced directly to a flow cell of a ^13CO2 analyzer EX-130S (Nihon Bunko) to measure ^13C atom % and the carbon dioxide gas concentration continuously. A Perma Pure drier (MD-050-12P, Perma Pure Inc.) was set between the rat holder and the stroke pump to remove out water vapor in the breath. After the CO2 concentration was stabilized, the rat was once removed out of the rat holder and an aqueous solution of ^13C-labeled cyclodextrin was administered (75 mg/kg, 5 ml/kg) into the stomach using an oral sonde.
Δ^13C (‰) was calculated from the ^13C concentration in the exhaled CO2 at each time point (^13C tmin) and the ^13C concentration in standard CO2 (^13C std) according to the following equation: Δ^13C (‰)=[(^13C tmin−^13C 0 min)/^13C std]×1000

## N[C@@H](C[13c]1ccccc1)C(=O)O [(1-^13C]-phenylalanine, [1-^13C]-phenylalanine]
[1]
  precipitation of phenylalanine when the solution was allowed to cool to 25° C.: phenylalanine was precipitated

## ^13C-dilaurylfluorescein [^13C-FDL]
[2]; 160 mg/kg oral in olive oil, at each time point for 5 hours (FIG. 10)
  Δ^13C (‰) values of chronic pancreatitis rats compared with control rats: smaller than the control rats
[2]; chronic pancreatitis rats, 160 mg/kg oral in olive oil, at 3 hours
  Δ^13C (‰) value in exhaled CO2: 42.0±21.3 ‰
[2]; chronic pancreatitis rats, 160 mg/kg oral in olive oil, at 5 hours
  Δ^13C (‰) value in exhaled CO2: 95.4±47.1 ‰
[2]; control rats, 160 mg/kg oral in olive oil, at 3 hours
  Δ^13C (‰) value in exhaled CO2: 153.3±22.8 ‰
[2]; control rats, 160 mg/kg oral in olive oil, at 5 hours
  Δ^13C (‰) value in exhaled CO2: 236.3±12.4 ‰

## N[C@@H](Cc1ccccc1)C(=O)O [phenylalanine]
[3]
  solubility: 148 mg/5 ml

## ^13C-dioctanoylfluorescein [^13C-FDO]
[2]; 200 mg/kg oral in olive oil, at each time point for 5 hours (FIG. 11)
  Δ^13C (‰) values of chronic pancreatitis rats compared with control rats: smaller than the control rats
[2]; chronic pancreatitis rats, 200 mg/kg oral in olive oil, at 1 hour
  Δ^13C (‰) value in exhaled CO2: 2.7±3.8 ‰
[2]; chronic pancreatitis rats, 200 mg/kg oral in olive oil, at 3 hours
  Δ^13C (‰) value in exhaled CO2: 18.4±12.1 ‰
[2]; chronic pancreatitis rats, 200 mg/kg oral in olive oil, at 4 hours
  Δ^13C (‰) value in exhaled CO2: 15.2±13.4 ‰
[2]; chronic pancreatitis rats, 200 mg/kg oral in olive oil, at 5 hours
  Δ^13C (‰) value in exhaled CO2: 20.6±11.2 ‰
[2]; control rats, 200 mg/kg oral in olive oil, at 1 hour
  Δ^13C (‰) value in exhaled CO2: 46.3±11.5 ‰
[2]; control rats, 200 mg/kg oral in olive oil, at 3 hours
  Δ^13C (‰) value in exhaled CO2: 60.6±12.7 ‰
[2]; control rats, 200 mg/kg oral in olive oil, at 4 hours
  Δ^13C (‰) value in exhaled CO2: 88.7±8.2 ‰
[2]; control rats, 200 mg/kg oral in olive oil, at 5 hours
  Δ^13C (‰) value in exhaled CO2: 73.6±14.1 ‰

## galactosyl ^13C-maltohexaose [galactosyl ^13C-labeled maltohexaose]
[4]; chronic pancreatitis rats
  Δ^13C (‰) value in exhaled CO2: 18.9 ± 17 ‰
[4]; control rats
  Δ^13C (‰) value in exhaled CO2: 95.6 ± 42.4 ‰
[4]; galactosyl ^13C-maltohexaose 75 mg/kg oral, for 30 minutes (FIG. 4)
  increase in Δ^13C (‰) value of chronic pancreatitis rats compared with control rats: smaller than the control rats
